The values that follow come from ChEMBL document CHEMBL3860079, “Design and synthesis of novel HDAC8 inhibitory 2,5-disubstituted-1,3,4-oxadiazoles containing glycine and alanine hybrids with anti cancer activity” (Bioorg Med Chem, 2016).

Experiment [1] is described as follows: Cytotoxicity against human MDA-MB-231 cells assessed as reduction in cell viability measured after 24 hrs by MTT assay. The experiment is classed as functional, cell-based. The conditions noted are these: MDA-MB-231, 24 h.
Experiment [2] deals with T1, Histone deacetylase 8 (Homo sapiens, UniProt Q9BY41).
T1 sequence (Q9BY41 whole entry): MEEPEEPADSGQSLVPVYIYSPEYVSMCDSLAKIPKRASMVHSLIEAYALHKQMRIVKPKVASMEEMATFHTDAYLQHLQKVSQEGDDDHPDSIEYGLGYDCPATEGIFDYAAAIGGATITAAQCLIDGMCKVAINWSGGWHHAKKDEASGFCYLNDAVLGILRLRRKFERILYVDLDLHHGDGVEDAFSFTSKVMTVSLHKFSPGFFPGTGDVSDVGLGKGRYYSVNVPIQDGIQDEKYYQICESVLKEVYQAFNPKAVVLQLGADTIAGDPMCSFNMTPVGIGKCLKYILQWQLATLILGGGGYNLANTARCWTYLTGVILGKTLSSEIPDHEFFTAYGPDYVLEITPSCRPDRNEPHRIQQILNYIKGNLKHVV
The experiment is described as follows: Inhibition of recombinant human full length GST-tagged HDAC8 expressed in Escherichia coli DH5alpha (DE3) assessed as inhibition of deacetylation activity using Fluor-de-Lys as substrate measured after 15 mins by fluorimetric assay.

Experiment [3] concerns the target T2, Histone deacetylase 2 (Homo sapiens, UniProt Q92769). The experiment is described as follows: Inhibition of HDAC2 in human MDA-MB-231 cells assessed as inhibition of deacetylation activity at 100 nM using Fluor-de-Lys as substrate measured after 15 mins by fluorimetric assay. Format: cell-based.
Experiment [4] has as its target T3, Histone deacetylase 3 (Homo sapiens, UniProt O15379). The experiment in a line: Inhibition of HDAC3 in human MDA-MB-231 cells assessed as inhibition of deacetylation activity using Fluor-de-Lys as substrate measured after 15 mins by fluorimetric assay. Format: cell-based.
Experiment [5] is filed under the species Homo sapiens. The experiment is described as follows: Selectivity ratio of IC50 for human full length GST-tagged HDAC8 expressed in Escherichia coli DH5alpha (DE3) to IC50 for HDAC2 in human MDA-MB-231 cells.
The target of experiment [6] is T4, Histone deacetylase 1 (Homo sapiens, UniProt Q13547). The experiment is described as follows: Inhibition of HDAC1 in human MDA-MB-231 cells assessed as inhibition of deacetylation activity at 100 nM using Fluor-de-Lys as substrate measured after 15 mins by fluorimetric assay. Format: cell-based.
T4 sequence (Q13547 whole entry): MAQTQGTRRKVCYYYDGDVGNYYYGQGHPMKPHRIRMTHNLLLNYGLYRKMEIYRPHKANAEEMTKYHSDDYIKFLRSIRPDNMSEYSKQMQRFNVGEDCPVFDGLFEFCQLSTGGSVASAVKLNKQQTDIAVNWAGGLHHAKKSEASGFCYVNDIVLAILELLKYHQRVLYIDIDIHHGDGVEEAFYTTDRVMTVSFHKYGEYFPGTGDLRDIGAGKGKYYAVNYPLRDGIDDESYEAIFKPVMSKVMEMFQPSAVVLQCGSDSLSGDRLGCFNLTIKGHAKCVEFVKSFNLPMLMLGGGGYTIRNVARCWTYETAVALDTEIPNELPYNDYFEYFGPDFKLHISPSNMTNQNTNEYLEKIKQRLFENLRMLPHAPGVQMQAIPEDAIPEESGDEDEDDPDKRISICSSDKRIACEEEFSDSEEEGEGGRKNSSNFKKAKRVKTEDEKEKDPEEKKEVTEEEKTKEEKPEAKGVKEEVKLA
Experiment [7] concerns the target T4, Histone deacetylase 1. The experiment in a line: Inhibition of HDAC1 in human MDA-MB-231 cells assessed as inhibition of deacetylation activity using Fluor-de-Lys as substrate measured after 15 mins by fluorimetric assay. Format: cell-based.
Experiment [8] addresses T5, Histone deacetylase 8 (Homo sapiens) (UniProt Q9BY41).
T5 sequence (whole entry): T1 sequence (Q9BY41 whole entry)
The experiment is described as follows: Inhibition of human HDAC8 immunoprecipitated from MDA-MB-231 cell lysates assessed as inhibition of deacetylation activity at 100 nM using Fluor-de-Lys as substrate measured after 15 mins by fluorimetric assay.

The target of experiment [9] is T2, Histone deacetylase 2. The experiment is described as follows: Inhibition of HDAC2 in human MDA-MB-231 cells assessed as inhibition of deacetylation activity using Fluor-de-Lys as substrate measured after 15 mins by fluorimetric assay. Format: cell-based.
The target of experiment [10] is T3, Histone deacetylase 3. The experiment in a line: Inhibition of HDAC3 in human MDA-MB-231 cells assessed as inhibition of deacetylation activity at 100 nM using Fluor-de-Lys as substrate measured after 15 mins by fluorimetric assay. Format: cell-based.
The species named for experiment [11] is Homo sapiens. The experiment in a line: Selectivity ratio of IC50 for human full length GST-tagged HDAC8 expressed in Escherichia coli DH5alpha (DE3) to IC50 for HDAC1 in human MDA-MB-231 cells.

T3 sequence (O15379 whole entry): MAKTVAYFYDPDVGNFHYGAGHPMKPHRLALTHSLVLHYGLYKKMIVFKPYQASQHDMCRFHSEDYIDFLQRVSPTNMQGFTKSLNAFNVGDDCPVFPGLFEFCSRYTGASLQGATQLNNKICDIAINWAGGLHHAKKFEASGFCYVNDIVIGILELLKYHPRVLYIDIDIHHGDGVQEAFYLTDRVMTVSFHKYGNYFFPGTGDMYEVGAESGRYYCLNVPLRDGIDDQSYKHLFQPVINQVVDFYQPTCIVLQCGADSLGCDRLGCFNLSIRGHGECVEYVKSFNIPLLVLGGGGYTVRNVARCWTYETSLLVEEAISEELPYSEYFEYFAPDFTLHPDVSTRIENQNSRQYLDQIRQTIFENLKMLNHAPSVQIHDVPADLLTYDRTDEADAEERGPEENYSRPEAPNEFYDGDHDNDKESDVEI
T2 sequence (Q92769 whole entry): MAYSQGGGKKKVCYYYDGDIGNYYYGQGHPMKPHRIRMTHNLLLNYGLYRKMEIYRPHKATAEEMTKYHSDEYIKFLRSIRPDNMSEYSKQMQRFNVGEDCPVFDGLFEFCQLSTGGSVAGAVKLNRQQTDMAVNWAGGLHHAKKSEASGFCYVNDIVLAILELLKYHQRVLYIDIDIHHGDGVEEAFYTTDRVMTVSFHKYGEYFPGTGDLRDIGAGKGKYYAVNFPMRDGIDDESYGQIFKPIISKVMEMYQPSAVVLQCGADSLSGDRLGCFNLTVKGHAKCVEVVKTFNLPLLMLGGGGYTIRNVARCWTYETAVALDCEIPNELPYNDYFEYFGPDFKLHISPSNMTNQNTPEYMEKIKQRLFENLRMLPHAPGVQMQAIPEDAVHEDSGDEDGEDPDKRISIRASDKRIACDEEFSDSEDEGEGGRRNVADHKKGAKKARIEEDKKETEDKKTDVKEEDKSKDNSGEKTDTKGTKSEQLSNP

With `Cc1ccc(-c2nnc(CNC(=O)CN)o2)cc1`, the half-inhibitory concentration (IC50) in experiment [1] amounted to 260 nM; in experiment [2], 139 nM.

As for `COc1ccc(-c2nnc(CNC(=O)CN)o2)cc1`, the IC50 in experiment [1] came to 276 nM; in experiment [2] it was 142 nM.

With `NCC(=O)NCc1nnc(-c2ccccc2)o1`, the concentration for half-maximal inhibition (IC50) was determined as 283 nM in experiment [1] and 155 nM in [2].

Take `C[C@@H](N)C(=O)NCc1nnc(-c2ccc([N+](=O)[O-])cc2)o1`: the results for the IC50 in [1] and in [2] were 261 nM and 127 nM, respectively.

Regarding `C[C@@H](N)C(=O)NCc1nnc(-c2ccccc2)o1`, the inhibition was found to be 19% in experiment [3], 30% in [6], 53% in experiment [8] and 0% in experiment [10]. In addition, the half-maximal inhibitory concentration (IC50) in experiment [4] was above 10 µM; in experiment [7], 260 nM; in experiment [1], 230 nM; in [9] it was 135 nM; in experiment [2] it was 98 to 100 nM. For the same molecule, the Ratio IC50 in [5] turned out to be 0.74; in experiment [11] it was 0.38.

For the molecule `COc1ccc(-c2nnc(CNC(=O)[C@@H](C)N)o2)cc1`, the IC50 was found to be 295 nM in experiment [1] and 153 nM in experiment [2].

For the molecule `Cc1ccc(-c2nnc(CNC(=O)[C@@H](C)N)o2)cc1`, the 50% inhibitory concentration (IC50) came to 254 nM in [1] and 121 nM in experiment [2].

Consider `NCC(=O)NCc1nnc(-c2ccc([N+](=O)[O-])cc2)o1`, for which the figures for the half-inhibitory concentration (IC50) in experiment [1] and in [2] were 276 nM and 134 nM, respectively.

Consider `C[C@@H](N)C(=O)NCc1nnc(-c2ccc(F)cc2)o1`, for which the IC50 in experiment [1] worked out at 247 nM; in [2], 116 nM.

For `NCC(=O)NCc1nnc(-c2ccc(F)cc2)o1`, the 50% inhibitory concentration (IC50) amounted to 254 nM in experiment [1] and 135 nM in experiment [2].
